Laboratory results taken from the supplement of paper PMC10307832.

Key:
Assay in all cases: relative viability (nuclei count vs DMSO), 5 days (fraction); higher = more cells survive
201T = tested on: 201T
How it was run: (§1)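 Lung cancer cell lines in 1536-well plates got either a single drug or a fixed anchor-drug dose together with five library-drug doses (not always all listed) in √10 steps, by pin tool, on the day after seeding. Nuclei were counted after 5 days, and relative viability is the treated-to-vehicle ratio of nuclei counts. Values are medians of duplicate plates.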

BEN = tested on: BEN
How it was run: as §1

CAL-12T = tested on: CAL-12T
How it was run: as §1

HCC-827 = tested on: HCC-827
How it was run: as §1

LCLC-103H = tested on: LCLC-103H
How it was run: as §1

LCLC-97TM1 = tested on: LCLC-97TM1
How it was run: as §1

LXF-289 = tested on: LXF-289
How it was run: as §1

NCI-H1395 = tested on: NCI-H1395
How it was run: as §1

NCI-H1437 = tested on: NCI-H1437
How it was run: as §1

NCI-H1650 = tested on: NCI-H1650
How it was run: as §1

NCI-H1792 = tested on: NCI-H1792
How it was run: as §1

NCI-H1793 = tested on: NCI-H1793
How it was run: as §1

NCI-H1944 = tested on: NCI-H1944
How it was run: as §1

NCI-H2087 = tested on: NCI-H2087
How it was run: as §1

NCI-H2228 = tested on: NCI-H2228
How it was run: as §1

NCI-H2405 = tested on: NCI-H2405
How it was run: as §1

NCI-H3122 = tested on: NCI-H3122
How it was run: as §1

NCI-H322M = tested on: NCI-H322M
How it was run: as §1

NCI-H647 = tested on: NCI-H647
How it was run: as §1

NCI-H727 = tested on: NCI-H727
How it was run: as §1

RERF-LC-KJ = tested on: RERF-LC-KJ
How it was run: as §1

SK-LU-1 = tested on: SK-LU-1
How it was run: as §1

SMILES: CC(=O)O[C@@]12CO[C@@H]1C[C@H](O)[C@@]1(C)C(=O)[C@H](O)C3=C(C)[C@@H](OC(=O)[C@H](O)[C@@H](NC(=O)OC(C)(C)C)c4ccccc4)C[C@@](O)([C@@H](OC(=O)c4ccccc4)[C@H]21)C3(C)C [Docetaxel] + CS(=O)(=O)N1CCN(Cc2cc3nc(-c4cccc5[nH]ncc45)nc(N4CCOCC4)c3s2)CC1 [Pictilisib] (partner 1 µM)
- relative viability (201T; first compound 0.0002 µM): 0.683
- relative viability (201T; first compound 0.000632 µM): 0.672
- relative viability (201T; first compound 0.002 µM): 0.557
- relative viability (201T; first compound 0.006325 µM): 0.567
- relative viability (201T; first compound 0.02 µM): 0.289
- relative viability (BEN; first compound 0.0002 µM): 0.479
- relative viability (BEN; first compound 0.000632 µM): 0.504
- relative viability (BEN; first compound 0.006325 µM): 0.23
- relative viability (BEN; first compound 0.02 µM): 0.169
- relative viability (CAL-12T; first compound 0.0002 µM): 0.53
- relative viability (CAL-12T; first compound 0.000632 µM): 0.271
- relative viability (CAL-12T; first compound 0.002 µM): 0.268
- relative viability (CAL-12T; first compound 0.006325 µM): 0.24
- relative viability (CAL-12T; first compound 0.02 µM): 0.171
- relative viability (HCC-827; first compound 0.0002 µM): 0.904
- relative viability (HCC-827; first compound 0.000632 µM): 1.08
- relative viability (HCC-827; first compound 0.002 µM): 0.787
- relative viability (HCC-827; first compound 0.006325 µM): 0.466
- relative viability (HCC-827; first compound 0.02 µM): 0.363
- relative viability (LCLC-103H; first compound 0.0002 µM): 0.537
- relative viability (LCLC-103H; first compound 0.000632 µM): 0.514
- relative viability (LCLC-103H; first compound 0.002 µM): 0.612
- relative viability (LCLC-103H; first compound 0.006325 µM): 0.455
- relative viability (LCLC-103H; first compound 0.02 µM): 0.251
- relative viability (LCLC-97TM1; first compound 0.000632 µM): 0.206
- relative viability (LCLC-97TM1; first compound 0.002 µM): 0.113
- relative viability (LCLC-97TM1; first compound 0.006325 µM): 0.112
- relative viability (LCLC-97TM1; first compound 0.02 µM): 0.102
- relative viability (LXF-289; first compound 0.0002 µM): 0.815
- relative viability (LXF-289; first compound 0.000632 µM): 0.653
- relative viability (LXF-289; first compound 0.002 µM): 0.212
- relative viability (LXF-289; first compound 0.006325 µM): 0.114
- relative viability (LXF-289; first compound 0.02 µM): 0.0576
- relative viability (NCI-H1395; first compound 0.0002 µM): 0.53
- relative viability (NCI-H1395; first compound 0.000632 µM): 0.617
- relative viability (NCI-H1395; first compound 0.002 µM): 0.543
- relative viability (NCI-H1395; first compound 0.006325 µM): 0.382
- relative viability (NCI-H1395; first compound 0.02 µM): 0.384
- relative viability (NCI-H1437; first compound 0.0002 µM): 0.453
- relative viability (NCI-H1437; first compound 0.000632 µM): 0.366
- relative viability (NCI-H1437; first compound 0.002 µM): 0.132
- relative viability (NCI-H1437; first compound 0.006325 µM): 0.117
- relative viability (NCI-H1437; first compound 0.02 µM): 0.0671
- relative viability (NCI-H1650; first compound 0.0002 µM): 0.431
- relative viability (NCI-H1650; first compound 0.000632 µM): 0.289
- relative viability (NCI-H1650; first compound 0.002 µM): 0.241
- relative viability (NCI-H1650; first compound 0.006325 µM): 0.146
- relative viability (NCI-H1650; first compound 0.02 µM): 0.13
- relative viability (NCI-H1792; first compound 0.0002 µM): 0.274
- relative viability (NCI-H1792; first compound 0.000632 µM): 0.273
- relative viability (NCI-H1792; first compound 0.002 µM): 0.178
- relative viability (NCI-H1792; first compound 0.02 µM): 0.073
- relative viability (NCI-H1793; first compound 0.0002 µM): 0.323
- relative viability (NCI-H1793; first compound 0.000632 µM): 0.369
- relative viability (NCI-H1793; first compound 0.002 µM): 0.279
- relative viability (NCI-H1793; first compound 0.006325 µM): 0.289
- relative viability (NCI-H1793; first compound 0.02 µM): 0.204
- relative viability (NCI-H1944; first compound 0.0002 µM): 0.338
- relative viability (NCI-H1944; first compound 0.000632 µM): 0.368
- relative viability (NCI-H1944; first compound 0.002 µM): 0.318
- relative viability (NCI-H1944; first compound 0.006325 µM): 0.322
- relative viability (NCI-H1944; first compound 0.02 µM): 0.178
- relative viability (NCI-H2087; first compound 0.0002 µM): 0.841
- relative viability (NCI-H2087; first compound 0.000632 µM): 0.631
- relative viability (NCI-H2087; first compound 0.002 µM): 0.284
- relative viability (NCI-H2087; first compound 0.006325 µM): 0.34
- relative viability (NCI-H2087; first compound 0.02 µM): 0.193
- relative viability (NCI-H2228; first compound 0.0002 µM): 0.291
- relative viability (NCI-H2228; first compound 0.000632 µM): 0.153
- relative viability (NCI-H2228; first compound 0.002 µM): 0.138
- relative viability (NCI-H2228; first compound 0.006325 µM): 0.18
- relative viability (NCI-H2228; first compound 0.02 µM): 0.131
- relative viability (NCI-H2405; first compound 0.0002 µM): 0.393
- relative viability (NCI-H2405; first compound 0.000632 µM): 0.429
- relative viability (NCI-H2405; first compound 0.002 µM): 0.39
- relative viability (NCI-H2405; first compound 0.006325 µM): 0.272
- relative viability (NCI-H2405; first compound 0.02 µM): 0.182
- relative viability (NCI-H3122; first compound 0.0002 µM): 0.567
- relative viability (NCI-H3122; first compound 0.000632 µM): 0.577
- relative viability (NCI-H3122; first compound 0.002 µM): 0.396
- relative viability (NCI-H3122; first compound 0.006325 µM): 0.217
- relative viability (NCI-H3122; first compound 0.02 µM): 0.172
- relative viability (NCI-H322M; first compound 0.0002 µM): 0.433
- relative viability (NCI-H322M; first compound 0.000632 µM): 0.493
- relative viability (NCI-H322M; first compound 0.002 µM): 0.492
- relative viability (NCI-H322M; first compound 0.006325 µM): 0.381
- relative viability (NCI-H322M; first compound 0.02 µM): 0.313
- relative viability (NCI-H647; first compound 0.0002 µM): 0.293
- relative viability (NCI-H647; first compound 0.000632 µM): 0.206
- relative viability (NCI-H647; first compound 0.002 µM): 0.138
- relative viability (NCI-H647; first compound 0.006325 µM): 0.117
- relative viability (NCI-H647; first compound 0.02 µM): 0.0727
- relative viability (NCI-H727; first compound 0.0002 µM): 0.309
- relative viability (NCI-H727; first compound 0.000632 µM): 0.4
- relative viability (NCI-H727; first compound 0.002 µM): 0.255
- relative viability (NCI-H727; first compound 0.006325 µM): 0.213
- relative viability (NCI-H727; first compound 0.02 µM): 0.182
- relative viability (RERF-LC-KJ; first compound 0.0002 µM): 0.525
- relative viability (RERF-LC-KJ; first compound 0.000632 µM): 0.408
- relative viability (RERF-LC-KJ; first compound 0.002 µM): 0.189
- relative viability (RERF-LC-KJ; first compound 0.006325 µM): 0.223
- relative viability (RERF-LC-KJ; first compound 0.02 µM): 0.104
- relative viability (SK-LU-1; first compound 0.0002 µM): 0.608
- relative viability (SK-LU-1; first compound 0.000632 µM): 0.305
- relative viability (SK-LU-1; first compound 0.002 µM): 0.253
- relative viability (SK-LU-1; first compound 0.006325 µM): 0.181
- relative viability (SK-LU-1; first compound 0.02 µM): 0.171
